Reference: ChEMBL document CHEMBL1149999, “Synthesis and pharmacological activity of a macrocyclic benzamide” (Bioorg Med Chem Lett, 1995)

Experiments:
Format in all cases: tissue-based
[1] = biological target: T1, Serotonin 3 (5-HT3) receptor (Rattus norvegicus, UniProt P35563+Q9JJ16); experiment: Binding affinity against 5-hydroxytryptamine 3 receptor using [3H]BRL-43694 as radioligand in rat posterior cortex
T1 sequence (P35563 whole entry): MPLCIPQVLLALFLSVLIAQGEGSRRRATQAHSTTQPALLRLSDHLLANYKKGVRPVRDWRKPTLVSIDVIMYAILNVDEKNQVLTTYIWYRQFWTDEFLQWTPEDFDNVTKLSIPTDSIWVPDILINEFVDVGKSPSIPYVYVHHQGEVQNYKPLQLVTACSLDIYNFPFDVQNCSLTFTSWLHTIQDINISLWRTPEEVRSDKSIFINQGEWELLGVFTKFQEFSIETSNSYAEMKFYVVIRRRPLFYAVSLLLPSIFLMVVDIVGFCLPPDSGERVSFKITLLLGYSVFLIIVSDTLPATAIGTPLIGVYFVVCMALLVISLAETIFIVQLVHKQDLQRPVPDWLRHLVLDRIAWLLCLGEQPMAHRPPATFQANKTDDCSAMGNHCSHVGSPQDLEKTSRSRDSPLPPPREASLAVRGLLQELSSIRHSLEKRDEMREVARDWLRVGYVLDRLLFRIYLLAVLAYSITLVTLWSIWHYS
T1 sequence (Q9JJ16 whole entry): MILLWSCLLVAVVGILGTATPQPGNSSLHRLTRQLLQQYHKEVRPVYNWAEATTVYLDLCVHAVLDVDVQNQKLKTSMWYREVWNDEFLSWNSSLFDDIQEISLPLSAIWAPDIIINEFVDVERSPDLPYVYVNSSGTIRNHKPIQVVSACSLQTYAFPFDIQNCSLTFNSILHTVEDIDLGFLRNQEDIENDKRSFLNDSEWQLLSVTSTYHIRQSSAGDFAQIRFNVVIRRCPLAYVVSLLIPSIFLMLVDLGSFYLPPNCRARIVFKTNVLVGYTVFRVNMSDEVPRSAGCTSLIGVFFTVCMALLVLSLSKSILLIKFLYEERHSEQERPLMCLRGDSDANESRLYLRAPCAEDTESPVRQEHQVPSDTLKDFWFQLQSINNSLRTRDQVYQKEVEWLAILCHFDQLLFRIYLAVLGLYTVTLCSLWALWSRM

D(2) dopamine receptor = D(2) dopamine receptor (Rattus norvegicus, UniProt P61169); experiment: Binding affinity against Dopamine receptor D2 using [3H]spiperone as radioligand in rat striatum
Sequence of D(2) dopamine receptor (P61169 whole entry): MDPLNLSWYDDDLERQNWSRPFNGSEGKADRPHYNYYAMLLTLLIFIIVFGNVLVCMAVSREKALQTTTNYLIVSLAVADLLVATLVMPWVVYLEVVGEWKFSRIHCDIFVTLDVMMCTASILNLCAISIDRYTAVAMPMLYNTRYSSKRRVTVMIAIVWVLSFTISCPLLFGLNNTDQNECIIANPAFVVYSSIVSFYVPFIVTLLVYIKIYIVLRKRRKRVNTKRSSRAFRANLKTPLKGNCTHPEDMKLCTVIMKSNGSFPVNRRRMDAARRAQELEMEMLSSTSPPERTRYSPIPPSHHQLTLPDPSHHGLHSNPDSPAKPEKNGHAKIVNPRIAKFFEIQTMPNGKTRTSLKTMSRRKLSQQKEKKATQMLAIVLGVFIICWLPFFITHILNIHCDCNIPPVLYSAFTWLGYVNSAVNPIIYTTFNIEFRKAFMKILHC

[2] = biological target: 5-hydroxytryptamine receptor 4 (Rattus norvegicus, UniProt Q62758); experiment: Binding affinity against 5-hydroxytryptamine 4 receptor using [3H]GR-113808 as radioligand in rat striatum
Sequence of 5-hydroxytryptamine receptor 4 (Q62758 whole entry): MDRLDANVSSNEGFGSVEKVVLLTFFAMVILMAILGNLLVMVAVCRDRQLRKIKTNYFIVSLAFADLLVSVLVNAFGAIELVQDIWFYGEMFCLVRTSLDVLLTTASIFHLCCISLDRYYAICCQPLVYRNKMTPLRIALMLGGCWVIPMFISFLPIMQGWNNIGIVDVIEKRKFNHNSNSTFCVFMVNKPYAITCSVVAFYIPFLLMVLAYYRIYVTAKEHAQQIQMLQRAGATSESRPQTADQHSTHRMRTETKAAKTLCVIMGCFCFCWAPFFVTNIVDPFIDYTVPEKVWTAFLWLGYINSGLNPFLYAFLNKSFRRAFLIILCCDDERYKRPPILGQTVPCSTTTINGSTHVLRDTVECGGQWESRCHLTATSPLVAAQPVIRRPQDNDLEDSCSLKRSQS

Compound | Ki [1] [nM] | Ki (D(2) dopamine receptor) [nM] | Ki [2] [nM]
Nc1cc2c(cc1Cl)C(=O)NC1CCN(CCOCCO2)CC1 | 53.2 | > 1000 | 29.7
COc1cc(N)c(Cl)cc1C(=O)NC1CC2CCC(C1)N2Cc1ccccc1 (centres undefined) | > 1000 | 0.28 | 233
COc1cc(N)c(Cl)cc1C(=O)NC1CCN(C)CC1 | 267 | > 1000 | 832
COc1cc(N)c(Cl)cc1C(=O)N[C@@H]1CN2CCC1CC2 | – | > 1000 | 383
COc1cc(N)c(Cl)cc1C(=O)NC1CC2CCC(C1)N2C (stereo in doubt) | 0.8 | > 1000 | 48
COc1cc(N)c(Cl)cc1C(=O)NC1CC2CCC(C1)N2C (stereo in doubt; 5) | 41.8 | > 1000 | > 1000
COc1cc(N)c(Cl)cc1C(=O)NC1CCN(Cc2ccccc2)CC1 [CLEBOPRIDE] | > 1000 | – | 104
